Measurements: ChEMBL document CHEMBL4014331, “Design and Synthesis of Soluble and Cell-Permeable PI3Kδ Inhibitors for Long-Acting Inhaled Administration” (J Med Chem, 2017)
In brackets after ≈: the same amount, converted by molar mass.

Assays:
[1] = molecular target: Phosphatidylinositol 4,5-bisphosphate 3-kinase catalytic subunit gamma isoform (Homo sapiens, UniProt P48736); assay: Inhibition of recombinant human His6-tagged PI3Kgamma (144 to 1102 residues) using DiC8-PIP2 as substrate preincubated for 15 mins followed by substrate addition measured after 60 mins by ADP-Glo assay
[2] = molecular target: PI3K p110 beta/p85 alpha (Homo sapiens, UniProt P42338); assay: Inhibition of recombinant human His6-tagged PI3K p110beta/p85alpha using DiC8-PIP2 as substrate preincubated for 15 mins followed by substrate addition measured after 60 mins by ADP-Glo assay; type: protein-complex assay
[3] = molecular target: T1, Phosphatidylinositol 4,5-bisphosphate 3-kinase catalytic subunit delta isoform (Homo sapiens, UniProt O00329); assay: Inhibition of PI3Kdelta in human JeKo1 cells assessed as reduction in Akt phosphorylation at Ser473 residue preincubated for 60 mins followed by Anti-IgM stimulation for 10 mins by TR-FRET assay; type: cell-based
T1 sequence (O00329 whole entry): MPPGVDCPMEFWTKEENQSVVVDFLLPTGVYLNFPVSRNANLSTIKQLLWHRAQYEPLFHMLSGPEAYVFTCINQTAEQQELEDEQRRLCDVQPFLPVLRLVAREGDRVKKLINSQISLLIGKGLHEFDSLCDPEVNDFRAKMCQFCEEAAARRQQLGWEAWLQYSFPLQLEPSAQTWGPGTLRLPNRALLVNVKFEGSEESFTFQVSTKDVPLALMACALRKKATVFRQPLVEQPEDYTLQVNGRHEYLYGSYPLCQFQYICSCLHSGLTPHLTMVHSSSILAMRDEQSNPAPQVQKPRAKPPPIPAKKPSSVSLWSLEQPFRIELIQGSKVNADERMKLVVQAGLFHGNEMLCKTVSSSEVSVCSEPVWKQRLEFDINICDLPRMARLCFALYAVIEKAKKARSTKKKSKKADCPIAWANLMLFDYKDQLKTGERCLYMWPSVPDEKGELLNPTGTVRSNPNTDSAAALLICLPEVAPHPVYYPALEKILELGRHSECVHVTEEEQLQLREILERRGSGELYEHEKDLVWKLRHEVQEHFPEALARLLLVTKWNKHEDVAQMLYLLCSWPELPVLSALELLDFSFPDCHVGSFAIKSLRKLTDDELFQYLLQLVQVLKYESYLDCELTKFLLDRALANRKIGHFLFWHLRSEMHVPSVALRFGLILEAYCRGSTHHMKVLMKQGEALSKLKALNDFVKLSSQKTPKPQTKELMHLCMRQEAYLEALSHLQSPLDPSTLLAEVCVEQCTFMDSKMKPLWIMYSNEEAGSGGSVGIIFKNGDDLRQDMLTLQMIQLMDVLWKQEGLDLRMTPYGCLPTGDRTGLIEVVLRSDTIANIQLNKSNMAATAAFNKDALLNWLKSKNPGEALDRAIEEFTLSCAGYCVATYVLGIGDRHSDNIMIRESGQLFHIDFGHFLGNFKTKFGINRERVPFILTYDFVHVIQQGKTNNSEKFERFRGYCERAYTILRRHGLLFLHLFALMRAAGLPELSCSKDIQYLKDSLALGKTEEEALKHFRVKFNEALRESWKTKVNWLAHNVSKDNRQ

[4] = molecular target: PI3-kinase p110-alpha/p85-alpha (Homo sapiens, UniProt P42336); assay: Inhibition of recombinant human His6-tagged PI3K p110alpha/p85alpha using DiC8-PIP2 as substrate preincubated for 15 mins followed by substrate addition measured after 60 mins by ADP-Glo assay; type: protein-complex assay
[5] = Lipophilicity, log D of the compound; type: physicochemical; conditions: octanol/water
[6] = molecular target: PI3-kinase p110-delta/p85-alpha (Homo sapiens, UniProt O00329); assay: Inhibition of recombinant human His6-tagged PI3K p110delta/p85alpha using DiC8-PIP2 as substrate preincubated for 15 mins followed by substrate addition measured after 60 mins by ADP-Glo assay; type: protein-complex assay
[7] = Metabolic stability in it dosed rat lungs assessed as compound remaining at 24 hrs post dose by LC-MS/MS analysis; type: ADME, organism-based; conditions: lung, inhaled or intranasal, read-out: Stability
[8] = Metabolic stability in it dosed rat lungs assessed as compound remaining at 4 hrs post dose by LC-MS/MS analysis; type: ADME, organism-based; conditions: lung, inhaled or intranasal, read-out: Stability
[9] = Terminal half life in it dosed rat lung by LC-MS/MS analysis; type: ADME, organism-based; conditions: inhaled or intranasal, read-out: beta t1/2 (converted)
[10] = Solubility of the compound; type: physicochemical
[11] = Metabolic stability in it dosed rat lungs assessed as compound remaining at 3 mins post dose by LC-MS/MS analysis; type: ADME, organism-based; conditions: lung, inhaled or intranasal, read-out: Stability
[12] = Dissociation constant, acidic pKa of compound; type: physicochemical
[13] = Dissociation constant, basic pKa of compound; type: physicochemical

PI3K p110 beta/p85 alpha, sequence (P27986 whole entry, canonical isoform): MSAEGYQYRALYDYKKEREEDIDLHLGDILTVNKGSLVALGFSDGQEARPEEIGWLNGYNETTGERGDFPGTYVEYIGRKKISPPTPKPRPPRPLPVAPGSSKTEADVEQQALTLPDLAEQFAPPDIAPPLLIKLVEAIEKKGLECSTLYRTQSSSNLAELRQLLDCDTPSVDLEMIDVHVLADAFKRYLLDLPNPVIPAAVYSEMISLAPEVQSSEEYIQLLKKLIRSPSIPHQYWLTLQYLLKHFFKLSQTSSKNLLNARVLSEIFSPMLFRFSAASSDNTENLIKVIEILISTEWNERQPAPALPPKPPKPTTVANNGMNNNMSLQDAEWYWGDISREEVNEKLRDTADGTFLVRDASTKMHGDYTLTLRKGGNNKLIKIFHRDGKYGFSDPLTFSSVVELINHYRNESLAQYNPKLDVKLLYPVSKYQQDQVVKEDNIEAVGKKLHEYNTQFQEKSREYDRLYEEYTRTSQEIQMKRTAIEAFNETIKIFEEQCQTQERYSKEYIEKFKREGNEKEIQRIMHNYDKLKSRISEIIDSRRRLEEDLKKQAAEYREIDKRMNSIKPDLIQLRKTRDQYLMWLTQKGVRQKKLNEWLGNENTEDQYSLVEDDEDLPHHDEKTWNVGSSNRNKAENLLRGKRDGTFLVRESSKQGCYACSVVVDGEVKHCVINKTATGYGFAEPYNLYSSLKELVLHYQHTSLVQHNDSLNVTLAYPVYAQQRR
PI3K p110 beta/p85 alpha, sequence (P42338 whole entry, canonical isoform): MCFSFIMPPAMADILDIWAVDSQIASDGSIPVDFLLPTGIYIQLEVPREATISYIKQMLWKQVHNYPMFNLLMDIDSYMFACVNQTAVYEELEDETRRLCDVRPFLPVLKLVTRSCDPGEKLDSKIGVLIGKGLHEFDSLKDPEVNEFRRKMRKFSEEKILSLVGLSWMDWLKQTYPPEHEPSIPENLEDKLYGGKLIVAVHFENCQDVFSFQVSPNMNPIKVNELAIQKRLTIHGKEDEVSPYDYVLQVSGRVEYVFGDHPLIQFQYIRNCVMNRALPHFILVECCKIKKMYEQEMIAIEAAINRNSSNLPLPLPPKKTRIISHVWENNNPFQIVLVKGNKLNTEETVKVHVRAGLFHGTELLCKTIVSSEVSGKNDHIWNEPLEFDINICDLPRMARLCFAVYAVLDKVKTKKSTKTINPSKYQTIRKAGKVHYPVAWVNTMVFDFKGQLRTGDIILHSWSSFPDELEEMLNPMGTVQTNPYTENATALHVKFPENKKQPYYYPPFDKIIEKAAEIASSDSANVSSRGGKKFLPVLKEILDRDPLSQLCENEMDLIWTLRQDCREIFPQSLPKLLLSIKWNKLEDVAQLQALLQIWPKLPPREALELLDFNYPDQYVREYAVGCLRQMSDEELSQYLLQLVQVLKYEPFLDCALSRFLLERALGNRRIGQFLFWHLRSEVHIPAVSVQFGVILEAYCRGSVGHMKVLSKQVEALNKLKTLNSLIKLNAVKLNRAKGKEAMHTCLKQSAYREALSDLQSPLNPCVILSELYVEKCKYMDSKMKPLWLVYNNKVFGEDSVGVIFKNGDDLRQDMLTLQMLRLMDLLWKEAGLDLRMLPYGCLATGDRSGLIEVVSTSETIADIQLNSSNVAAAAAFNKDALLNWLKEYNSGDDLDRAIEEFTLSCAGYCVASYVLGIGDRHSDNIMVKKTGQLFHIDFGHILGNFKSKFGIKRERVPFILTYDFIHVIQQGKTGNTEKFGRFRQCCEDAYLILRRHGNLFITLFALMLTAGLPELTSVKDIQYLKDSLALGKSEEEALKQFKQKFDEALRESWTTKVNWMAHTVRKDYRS
PI3-kinase p110-delta/p85-alpha, sequence (P27986 whole entry, one chain of several): as the sequence (P27986 whole entry, canonical isoform) above
PI3-kinase p110-alpha/p85-alpha, sequence (P27986 whole entry): as the sequence (P27986 whole entry, canonical isoform) above
PI3-kinase p110-alpha/p85-alpha, sequence (P42336 whole entry): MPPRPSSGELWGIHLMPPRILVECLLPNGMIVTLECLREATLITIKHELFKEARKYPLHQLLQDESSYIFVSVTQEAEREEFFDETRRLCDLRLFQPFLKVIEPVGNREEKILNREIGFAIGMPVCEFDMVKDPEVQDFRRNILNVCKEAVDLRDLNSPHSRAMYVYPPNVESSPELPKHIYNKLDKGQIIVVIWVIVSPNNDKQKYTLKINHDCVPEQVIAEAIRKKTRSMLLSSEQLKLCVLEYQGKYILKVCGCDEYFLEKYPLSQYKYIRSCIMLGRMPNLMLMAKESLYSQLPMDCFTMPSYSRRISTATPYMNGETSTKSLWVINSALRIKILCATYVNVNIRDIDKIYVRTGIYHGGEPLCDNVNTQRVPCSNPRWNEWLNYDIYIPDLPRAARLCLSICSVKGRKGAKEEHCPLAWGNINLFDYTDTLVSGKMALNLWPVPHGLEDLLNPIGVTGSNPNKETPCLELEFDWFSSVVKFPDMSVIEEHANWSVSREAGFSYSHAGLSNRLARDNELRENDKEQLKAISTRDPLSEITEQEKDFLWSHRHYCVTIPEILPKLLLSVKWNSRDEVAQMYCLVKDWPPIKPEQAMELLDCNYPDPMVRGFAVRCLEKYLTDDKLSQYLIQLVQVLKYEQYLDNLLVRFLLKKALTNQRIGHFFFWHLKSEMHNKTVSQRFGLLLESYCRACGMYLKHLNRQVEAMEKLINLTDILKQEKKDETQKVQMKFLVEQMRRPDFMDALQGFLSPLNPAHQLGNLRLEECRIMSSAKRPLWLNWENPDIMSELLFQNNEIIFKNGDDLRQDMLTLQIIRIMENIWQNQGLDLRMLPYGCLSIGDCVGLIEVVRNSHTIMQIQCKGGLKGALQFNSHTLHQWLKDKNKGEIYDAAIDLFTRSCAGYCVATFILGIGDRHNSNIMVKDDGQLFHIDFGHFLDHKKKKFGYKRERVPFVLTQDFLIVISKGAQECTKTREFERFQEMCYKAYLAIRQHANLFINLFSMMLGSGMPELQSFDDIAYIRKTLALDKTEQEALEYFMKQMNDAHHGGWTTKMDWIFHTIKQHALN
Phosphatidylinositol 4,5-bisphosphate 3-kinase catalytic subunit gamma isoform, sequence (P48736 whole entry, the tested form may be a part, canonical isoform): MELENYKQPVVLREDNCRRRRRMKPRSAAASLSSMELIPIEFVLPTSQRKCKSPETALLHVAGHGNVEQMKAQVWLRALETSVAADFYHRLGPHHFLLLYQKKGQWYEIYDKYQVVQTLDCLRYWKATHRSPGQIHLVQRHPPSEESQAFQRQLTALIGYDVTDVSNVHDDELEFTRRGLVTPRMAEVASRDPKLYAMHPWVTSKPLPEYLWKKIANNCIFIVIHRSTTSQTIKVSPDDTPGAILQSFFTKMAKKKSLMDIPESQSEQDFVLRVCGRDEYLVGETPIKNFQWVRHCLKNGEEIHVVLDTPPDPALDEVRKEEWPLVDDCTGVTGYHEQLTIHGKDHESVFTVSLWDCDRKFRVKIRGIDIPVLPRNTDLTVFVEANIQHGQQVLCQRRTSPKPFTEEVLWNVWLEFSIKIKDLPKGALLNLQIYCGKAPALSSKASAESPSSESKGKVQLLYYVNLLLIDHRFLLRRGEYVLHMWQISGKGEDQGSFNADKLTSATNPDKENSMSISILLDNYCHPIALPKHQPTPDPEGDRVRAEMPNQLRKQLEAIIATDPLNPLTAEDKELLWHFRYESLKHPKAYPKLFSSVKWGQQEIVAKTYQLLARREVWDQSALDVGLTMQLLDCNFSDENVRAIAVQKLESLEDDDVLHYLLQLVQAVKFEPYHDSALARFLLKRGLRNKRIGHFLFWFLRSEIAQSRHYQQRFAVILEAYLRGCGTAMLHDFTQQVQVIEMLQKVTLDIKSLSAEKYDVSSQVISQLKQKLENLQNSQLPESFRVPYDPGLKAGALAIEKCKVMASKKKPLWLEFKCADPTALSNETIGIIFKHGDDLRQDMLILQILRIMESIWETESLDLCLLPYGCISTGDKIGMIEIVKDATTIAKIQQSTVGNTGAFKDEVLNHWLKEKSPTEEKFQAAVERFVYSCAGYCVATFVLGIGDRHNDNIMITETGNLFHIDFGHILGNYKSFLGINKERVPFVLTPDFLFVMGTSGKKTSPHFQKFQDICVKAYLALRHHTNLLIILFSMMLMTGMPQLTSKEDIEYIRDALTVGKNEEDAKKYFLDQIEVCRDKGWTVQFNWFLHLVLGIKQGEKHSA

| Structure (SMILES) | IC50 [1] | IC50 [2] | IC50 [3] | IC50 [4] | logD [5] | IC50 [6] | remaining at 24 h [7] | remaining at 4 h [8] | half-life [9] | solubility [10] | remaining at 0.05 h [11] | pKa [12] | pKa [13] |
| --- | --- | --- | --- | --- | --- | --- | --- | --- | --- | --- | --- | --- | --- |
| Cc1csc2cc([C@H](C)Nc3ncnc(N)c3C#N)c(-c3cccc(CCN(C)C)c3)c(=O)n12 | > 1 µM | 0.0501 µM | 0.00251 µM | 1.26 µM | 0.5 | 0.000794 µM |  |  |  |  |  |  |  |
| COCCNCc1cccc(-c2c([C@H](C)Nc3ncnc(N)c3C#N)cc3scc(C)n3c2=O)c1 | 0.398 µM | 0.02 µM | 0.00251 µM | 1.26 µM | 0.7 | 0.000631 µM | 0% | 0.8% | 1.3 h | > 1000 µM |  |  |  |
| Cc1csc2cc([C@H](C)Nc3ncnc(N)c3C#N)c(-c3ccccc3)c(=O)n12 | 0.0126 µM | 0.0501 µM | 0.000631 to 0.000794 µM | 0.631 µM | 2.7 | 0.000398 µM | 0% | 0% | < 0.1 h | 77 µM (≈ 31 µg/mL) | 2% |  |  |
| CNCc1cccc(-c2c([C@H](C)Nc3ncnc(N)c3C#N)cc3scc(C)n3c2=O)c1 | 0.631 µM | 0.01 µM | 0.02 µM | 1.26 µM | -0.2 | 0.000794 µM | 0% | 2.5% | 4.9 h | > 1000 µM |  |  |  |
| Cc1csc2cc([C@H](C)Nc3ncnc(N)c3C#N)c(-c3cccc(CC4CCN(C(C)C)CC4)c3)c(=O)n12 | 0.251 µM | 0.398 µM | 0.00158 µM | 1 µM | 1.1 | 0.000631 µM |  |  |  |  |  |  |  |
| Cc1csc2cc([C@H](C)Nc3ncnc(N)c3C#N)c(-c3cccc(CN4CCC4)c3)c(=O)n12 | 0.501 µM | 0.0398 µM | 0.00251 µM | 1.58 µM | 0.5 | 0.000501 µM | 0% | 0.5% | 1.1 h | 954 µM (≈ 450 µg/mL) |  |  |  |
| Cc1csc2cc([C@H](C)Nc3ncnc(N)c3C#N)c(-c3cccc(CN(C)CCCCN(C)Cc4ccccc4)c3)c(=O)n12 | ≥ 0.2 µM | 0.0158 µM | 0.002 µM | ≥ 0.631 µM | 2.2 | 0.000501 µM | 7.4% |  | 17.6 h |  |  | 9.1 | 7 |
| Cc1csc2cc([C@H](C)Nc3ncnc(N)c3C#N)c(-c3cccc(CN)c3)c(=O)n12 | 0.2 µM | 0.00794 µM | 0.0398 µM | 1.26 µM | -0.3 | 0.000631 µM | 0% | 2% | 1.6 h | > 1000 µM |  |  |  |
| Cc1csc2cc([C@H](C)Nc3ncnc(N)c3C#N)c(-c3cccc(OCCN(C)C)c3)c(=O)n12 | 0.316 µM | 0.2 µM | 0.00631 µM | 7.94 µM | 0.7 | 0.00158 µM |  |  |  |  |  |  |  |
| Cc1csc2cc([C@H](C)Nc3ncnc(N)c3C#N)c(-c3cccc(CN4CCC(CN(C)CC(C)C)CC4)c3)c(=O)n12 | ≥ 0.2 µM | 0.0501 µM | 0.00251 µM | ≥ 0.631 µM | 2.1 | 0.000631 µM | 3.3% |  | 12 h |  |  | 9.8 | 8 |
| Cc1csc2cc([C@H](C)Nc3ncnc(N)c3C#N)c(-c3cccc(CN(C)CCCN4C[C@@H](C)O[C@@H](C)C4)c3)c(=O)n12 | ≥ 0.2 µM | 0.126 µM | 0.00501 µM | ≥ 0.631 µM | 1.5 | 0.00126 µM | 0.8% |  | 5.9 h |  |  | 8.5 | 5.7 |
| Cc1csc2cc([C@H](C)Nc3ncnc(N)c3C#N)c(-c3cccc(CN(C)CCCCN4C[C@@H](C)O[C@@H](C)C4)c3)c(=O)n12 | ≥ 0.2 µM | 0.0794 µM | 0.00631 µM | ≥ 0.631 µM | 1.5 | 0.00126 µM | 3.9% |  | 7.6 h |  |  | 8.9 | 6.3 |
| Cc1csc2cc([C@H](C)Nc3ncnc(N)c3C#N)c(-c3cccc(CNCCN4CCOCC4)c3)c(=O)n12 | ≥ 0.2 µM | 0.02 µM | 0.0126 µM | ≥ 0.631 µM | 0.6 | 0.000631 µM | 0.1% |  | 4.2 h |  |  | 9.6 | 4.7 |
| Cc1csc2cc([C@H](C)Nc3ncnc(N)c3C#N)c(-c3cccc(CN4CCC(CN(C)Cc5ccccn5)CC4)c3)c(=O)n12 | ≥ 0.2 µM | 0.0631 µM | 0.002 µM | ≥ 0.631 µM | 2 | 0.000794 µM | 5.2% |  | 10.9 h |  |  | 9 | 7 |
| CCN(CCN1CCOCC1)Cc1cccc(-c2c([C@H](C)Nc3ncnc(N)c3C#N)cc3scc(C)n3c2=O)c1 | ≥ 0.2 µM | 0.251 µM | 0.00126 µM | ≥ 0.631 µM | 1.4 | 0.000794 µM | 0% |  |  |  |  | 8 | 4 |
| Cc1csc2cc([C@H](C)Nc3ncnc(N)c3C#N)c(-c3cccc(CN(C)CC(C)C)c3)c(=O)n12 | > 0.794 µM | 0.1 µM | 0.000631 to 0.00158 µM | 2 µM | 2.3 | 0.000501 µM | 0% | 0% |  | 12 µM (≈ 6.02 µg/mL) | 6.5% |  |  |
| Cc1csc2cc([C@H](C)Nc3ncnc(N)c3C#N)c(-c3cccc(CN(C)CCCN(C)Cc4ccc(Cl)cc4)c3)c(=O)n12 | ≥ 0.2 µM | 0.0126 µM | 0.00316 µM | ≥ 0.631 µM | 3.2 | 0.000631 µM | 3.3% |  | 13 h |  |  | 8.8 | 7.5 |
| Cc1csc2cc([C@H](C)Nc3ncnc(N)c3C#N)c(-c3cccc(CN(C)C)c3)c(=O)n12 | 0.631 µM | 0.0631 µM | 0.00158 µM | 3.16 µM | 0.8 | 0.000794 µM | 0% | 0.2% | 2.3 h | 956 µM (≈ 439 µg/mL) |  |  |  |
| Cc1csc2cc([C@H](C)Nc3ncnc(N)c3C#N)c(-c3cccc(CNCCCCOCCc4ccccc4)c3)c(=O)n12 | 0.316 µM | 0.00794 µM | 0.00126 µM | 0.501 µM | 2.3 | 0.000398 µM | 0% | 4.8% | 3.5 h | 699 µM (≈ 425 µg/mL) |  |  |  |
